Structures can show the parent of a compound that is named as a salt.
Conditions: Example 1 component score, up to 8.68 points

Structure (SMILES) | Condition Seriousness
NCCCC(O)(P(=O)(O)O)P(=O)(O)O [alendronate] | 7.02
COc1ccccc1Oc1c(NS(=O)(=O)c2ccc(C(C)(C)C)cc2)nc(-c2ncccn2)nc1OCCO [bosentan] | 2.07
CS(=O)(=O)OCCCCOS(C)(=O)=O [busulfan] | 2.52

Same assay, conditions: human

Structure (SMILES) | Literature | ROR | RxScore | Adverse Event Seriousness | Outcome
NCCCC(O)(P(=O)(O)O)P(=O)(O)O [alendronate] | 5.0 |  |  |  | 
COc1ccccc1Oc1c(NS(=O)(=O)c2ccc(C(C)(C)C)cc2)nc(-c2ncccn2)nc1OCCO [bosentan] |  | 3.81 | 81.44 |  | 
CS(=O)(=O)OCCCCOS(C)(=O)=O [busulfan] | 12.5 | 7.15 | 86.04 | 14.67 | 15.73
Nc1nc(F)nc2c1ncn2[C@@H]1O[C@H](CO)[C@@H](O)[C@@H]1O [fludarabine] | 12.5 | 4.60 | 78.34 | 12.69 | 15.34
CCC(=O)C(CC(C)N(C)C)(c1ccccc1)c1ccccc1 (centres unmarked) [methadone] | 18.8 | 4.85 |  |  | 

Conditions: human

Structure (SMILES) | ROR | Adverse Event Seriousness | Outcome | RxScore
CN1CCC(=C2c3ccccc3CCn3c(C=O)cnc32)CC1 [alcaftadine] | 12.53 |  |  | 
Cc1nnc2n1-c1ccc(Cl)cc1C(c1ccccc1)=NC2 [alprazolam] | 6.40 | 13.30 | 21.02 | 72.84
CC[C@H]1OC(=O)[C@H](C)[C@@H](O[C@H]2C[C@@](C)(OC)[C@@H](O)[C@H](C)O2)[C@H](C)[C@@H](O[C@@H]2O[C@H](C)C[C@H](N(C)C)[C@H]2O)[C@](C)(O)C[C@@H](C)CN(C)[C@H](C)[C@@H](O)[C@]1(C)O [azithromycin] | 13.60 |  |  | 
C[C@H]1[C@H](NC(=O)/C(=N\OC(C)(C)C(=O)O)c2csc(N)n2)C(=O)N1S(=O)(=O)O [aztreonam] | 5.83 | 14.58 | 22.41 | 75.34
CC(C)C[C@H](NC(=O)[C@H](CCc1ccccc1)NC(=O)CN1CCOCC1)C(=O)N[C@@H](Cc1ccccc1)C(=O)N[C@@H](CC(C)C)C(=O)[C@@]1(C)CO1 [carfilzomib] |  |  | 22.81 | 
CCCC(C)(COC(N)=O)COC(=O)NC(C)C (centres unmarked) [carisoprodol] | 9.07 | 17.03 | 26.05 | 83.70
Nc1nc(Cl)nc2c1ncn2[C@@H]1O[C@H](CO)[C@@H](O)[C@@H]1F [clofarabine] |  |  | 23.27 | 
O=C1CN=C(c2ccccc2Cl)c2cc([N+](=O)[O-])ccc2N1 [clonazepam] | 3.43 | 11.38 | 15.34 | 51.36
CN1CCN(C2=Nc3cc(Cl)ccc3Nc3ccccc32)CC1 [clozapine] |  | 16.28 | 23.55 | 
CN(C)CCC=C1c2ccccc2C=Cc2ccccc21 [cyclobenzaprine hydrochloride] | 6.09 | 12.25 | 22.45 | 72.46
CCCCC[C@H](O)/C=C/[C@H]1[C@H](O)CC(=O)[C@@H]1C/C=C\CCCC(=O)O [dinoprostone] | 10.62 | 15.66 | 19.09 | 74.95
CCCC(CCC)C(=O)O [divalproex sodium] | 3.85 | 8.51 | 11.14 | 41.09
CNC[C@H](O)c1ccc(O)c(O)c1 [epinephrine injection, epinephrine] | 16.91 | 4.69 | 21.03 | 73.02
C#Cc1cccc(Nc2ncnc3cc(OCCOC)c(OCCOC)cc23)c1 [erlotinib hydrochloride] |  | 18.95 |  | 
C[C@]12CC[C@@H]3c4ccc(O)cc4CC[C@H]3[C@@H]1CC[C@@H]2O [estradiol] | 13.26 | 20.16 |  | 
CCC1(C)CC(=O)NC1=O (centres unmarked) [ethosuximide] | 2.92 | 7.71 | 10.64 | 41.01
NC(=O)OCC(COC(N)=O)c1ccccc1 [felbamate] | 2.81 | 7.72 | 14.26 | 43.92
O=C1NC(c2ccccc2)(c2ccccc2)C(=O)N1COP(=O)(O)O [fosphenytoin sodium] | 5.09 | 8.16 | 15.85 | 46.69
CC(OC(=O)NCC1(CC(=O)O)CCCCC1)OC(=O)C(C)C (centres unmarked) [gabapentin enacarbil] | 2.64 | 4.67 | 7.53 | 42.19
NCC1(CC(=O)O)CCCCC1 [gabapentin] | 2.86 | 9.67 | 11.51 | 43.00
CCCCCC(=O)O[C@]1(C(C)=O)CC[C@H]2[C@@H]3CCC4=CC(=O)CC[C@]4(C)[C@H]3CC[C@@]21C [hydroxyprogesterone caproate] | 12.09 |  |  | 

Source: patent US20140358576A1, “SYSTEM AND METHOD FOR SURVEILLANCE AND EVALUATION OF SAFETY RISKS ASSOCIATED WITH MEDICAL INTERVENTIONS” (Adverse Events, Inc., priority 2013, published 2014)
